These results are taken from ChEMBL document CHEMBL1155637, “Oleanane triterpenes from Junellia tridens” (2000).

This experiment deals with Mycobacterium tuberculosis. Briefly: Antitubercular activity against Mycobacterium tuberculosis H37Rv ATCC 27294 by BACTEC 460 radiorespirometric assay. It is filed as functional.

Converted amounts (≈) assume the structure as drawn.

As a reminder, the MIC is the smallest concentration in the dilution series that meets the test's criterion for growth inhibition. Read a low MIC as inhibition by little substance. Compound `CC(C)[C@@H]1CC[C@]2(C)[C@H](CC=C3[C@@H]4CC(C)(C)CC[C@]4(C(=O)O)CC[C@]32C)[C@@]1(C)CCC(=O)O` returned an MIC of 128 µg/mL (≈ 271 µM).
Take `CC1(C)CC[C@]2(C(=O)O)CC[C@]3(C)C(=CC[C@@H]4[C@@]5(C)CC[C@@H](O)C(C)(C)[C@@H]5CC[C@]43C)[C@@H]2C1`: the MIC amounted to 16 µg/mL (≈ 35 µM).
`CC1(C)CC[C@]2(C(=O)O)CC[C@]3(C)C(=C2C1)C=C[C@@H]1[C@@]2(C)CC[C@@H](O)C(C)(C)[C@@H]2CC[C@]13C` showed a minimum inhibitory concentration (MIC) of 64 µg/mL (≈ 141 µM).
Next, `CC1(C)CC[C@@]23CC[C@]4(C)[C@@](C=C[C@@H]5[C@@]6(C)CC[C@@H](O)C(C)(C)[C@@H]6CC[C@]54C)(OC2=O)[C@@H]3C1`: 64 µg/mL (≈ 141 µM); `C=C(C)[C@@H]1CC[C@]2(C(=O)O)CC[C@]3(C)[C@H](CC[C@@H]4[C@@]5(C)CC[C@@H](O)C(C)(C)[C@@H]5CC[C@]43C)[C@@H]12` [EPIBETULINIC ACID]: 50 µg/mL (≈ 109 µM).
`CC1(C)CC[C@]2(C(=O)O)CC[C@]3(C)C(=CC[C@@H]4[C@@]5(C)CC[C@H](O)C(C)(C)[C@@H]5CC[C@]43C)[C@@H]2C1` [OLEANOLIC_ACID] returned an MIC of 50 µg/mL (≈ 109 µM).
In turn, `CC1(C)CC[C@]2(C(=O)O)CC[C@]3(C)C(=CC[C@@H]4[C@@]5(C)CCC(=O)C(C)(C)[C@@H]5CC[C@]43C)[C@@H]2C1` [OLEANONIC ACID] returned a minimal inhibitory concentration (MIC) of 16 µg/mL (≈ 35.2 µM).
Take `CO[C@H]1/C=C/O[C@@]2(C)Oc3c(C)c(O)c4c(O)c(c(/C=N/N5CCN(C)CC5)c(O)c4c3C2=O)NC(=O)/C(C)=C\C=C\[C@H](C)[C@H](O)[C@@H](C)[C@@H](O)[C@@H](C)[C@H](OC(C)=O)[C@@H]1C` [RIFAMPIN]: the MIC was determined as 0.16 µg/mL (≈ 0.194 µM).
